Measurements published in patent US6914045B2, “Glycopeptide antibiotics” (Wyeth Holdings Corporation, priority 2001, dated 2005).
≈ marks a conversion by molar mass, not a printed value.

What was measured:
Assay in all cases: in vitro antibacterial evaluation, MIC by broth dilution
Type in all cases: cell-based
[1] = test system: Escherichia coli; settings: 18 hours at 35° C.
[2] = test system: Staphylococcus sp.; settings: broth dilution, 18 hours at 35° C.; for MIC Staphylococcus aureus (GC 1131): strain GC 1131; for MIC Staphylococcus aureus (ATCC 29213): strain ATCC 29213; for MIC Staphylococcus aureus (GC 3051): strain GC 3051; for MIC Staphylococcus aureus (GC 3053): strain GC 3053; for MIC Staphylococcus aureus (GC 4541): strain GC 4541; for MIC Staphylococcus aureus (GC 4542): strain GC 4542; for MIC Staphylococcus aureus-SMITH (GC 4543): strain GC 4543; for MIC Staphylococcus aureus (GC 4544): strain GC 4544; for MIC Staphylococcus aureus (GC 4545): strain GC 4545; for MIC Staphylococcus haemolyticus (GC 4546): strain GC 4546; for MIC Coagulase Negative Staphylococcus (GC 4547): strain GC 4547; for MIC Coagulase Negative Staphylococcus (GC 4548): strain GC 4548; for MIC Coagulase Negative Staphylococcus (GC 4549): strain GC 4549; for MIC Coagulase Negative Staphylococcus (GC 4551): strain GC 4551; for MIC Coagulase Negative Staphylococcus (GC 6257): strain GC 6257
How it was run: (§1)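 Broth dilution per NCCLS M7-A2 in Mueller-Hinton II medium, inoculum 5×10^5 CFU/mL, antibiotic range 64-0.06 μg/mL. MIC taken as lowest concentration inhibiting growth; Gram-positive panel includes recent clinical isolates resistant to methicillin, penicillin and/or vancomycin.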

[3] = test system: Streptococcus sp.; settings: broth dilution, 18 hours at 35° C.
How it was run: as §1

[4] = test system: Enterococcus sp.; settings: broth dilution, 18 hours at 35° C.
How it was run: as §1

## CC(c1ccccc1)C1NC(=O)CNC(=O)C(CO)NC(=O)C(C(O)C2CNC(=N)N2C2OC(CO)C(O)C(O)C2O)NC(=O)C(C(O)C2CNC(=N)N2)NC(=O)C(Cc2ccc(OC3OC(CO)C(OC4OC5COC(c6cccc(Oc7cccc(C(F)(F)F)c7)c6)OC5C(O)C4O)C(O)C3O)cc2)NC1=O (stereo not shown) [Example 184]
[1]
  MIC Escherichia coli (ATCC 25922): >64 µg/mL
  MIC Escherichia coli (GC 4559): >64 µg/mL
  MIC Escherichia coli (GC 4560): 32 µg/mL (≈ 20.7 µM)
[2]; inoculum 5×10^5 CFU/mL
  MIC Staphylococcus aureus (GC 1131): 32 µg/mL (≈ 20.7 µM)
[2]
  MIC Staphylococcus aureus (ATCC 29213): 32 µg/mL (≈ 20.7 µM)
  MIC Staphylococcus aureus (GC 1131): 32 µg/mL (≈ 20.7 µM)
  MIC Staphylococcus aureus (GC 3051): 32 µg/mL (≈ 20.7 µM)
  MIC Staphylococcus aureus (GC 3053): 32 µg/mL (≈ 20.7 µM)
  MIC Staphylococcus aureus (GC 4541): 32 µg/mL (≈ 20.7 µM)
  MIC Staphylococcus aureus (GC 4542): 32 µg/mL (≈ 20.7 µM)
  MIC Staphylococcus aureus-SMITH (GC 4543): 32 µg/mL (≈ 20.7 µM)
  MIC Staphylococcus aureus (GC 4544): 32 µg/mL (≈ 20.7 µM)
  MIC Staphylococcus aureus (GC 4545): 32 µg/mL (≈ 20.7 µM)
  MIC Staphylococcus haemolyticus (GC 4546): 32 µg/mL (≈ 20.7 µM)
  MIC Coagulase Negative Staphylococcus (GC 4547): 32 µg/mL (≈ 20.7 µM)
  MIC Coagulase Negative Staphylococcus (GC 4548): 16 µg/mL (≈ 10.4 µM)
  MIC Coagulase Negative Staphylococcus (GC 4549): 32 µg/mL (≈ 20.7 µM)
  MIC Coagulase Negative Staphylococcus (GC 4551): 32 µg/mL (≈ 20.7 µM)
  MIC Coagulase Negative Staphylococcus (GC 6257): 16 µg/mL (≈ 10.4 µM)
[3]
  MIC Streptococcus agalactiae (GC 4564): 0.12 µg/mL (≈ 0.0777 µM)
  MIC Streptococcus pneumoniae (ATCC 6301): <0.06 µg/mL
  MIC Streptococcus pneumoniae (GC 1894): <0.06 µg/mL
  MIC Streptococcus pneumoniae (GC 4565): <0.06 µg/mL
  MIC Streptococcus pyogenes (GC 4563): 0.25 µg/mL (≈ 0.162 µM)
[3]; inoculum 5×10^5 CFU/mL, strain ATCC 6301
  MIC Streptococcus pneumoniae (ATCC 6301): <0.06 µg/mL
[3]; inoculum 5×10^5 CFU/mL, strain GC 1894
  MIC Streptococcus pneumoniae (GC 1894): <0.06 µg/mL
[3]; inoculum 5×10^5 CFU/mL, strain GC 4563
  MIC Streptococcus pyogenes (GC 4563): 0.25 µg/mL (≈ 0.162 µM)
[3]; inoculum 5×10^5 CFU/mL, strain GC 4564
  MIC Streptococcus agalactiae (GC 4564): 0.12 µg/mL (≈ 0.0777 µM)
[3]; inoculum 5×10^5 CFU/mL, strain GC 4565
  MIC Streptococcus pneumoniae (GC 4565): <0.06 µg/mL
[4]
  MIC Enterococcus avium (GC 4558): 32 µg/mL (≈ 20.7 µM)
  MIC Enterococcus faecalis (ATCC 29212): 32 µg/mL (≈ 20.7 µM)
  MIC Enterococcus faecalis (GC 2242): 32 µg/mL (≈ 20.7 µM)
  MIC Enterococcus faecalis (GC 2691): 32 µg/mL (≈ 20.7 µM)
  MIC Enterococcus faecalis (GC 3059): 32 µg/mL (≈ 20.7 µM)
  MIC Enterococcus faecalis (GC 4552): 32 µg/mL (≈ 20.7 µM)
  MIC Enterococcus faecalis (GC 4553): 16 µg/mL (≈ 10.4 µM)
  MIC Enterococcus faecalis (GC 4554): 32 µg/mL (≈ 20.7 µM)
  MIC Enterococcus faecalis (GC 6189): 32 µg/mL (≈ 20.7 µM)
  MIC Enterococcus faecium (GC 2243): 16 µg/mL (≈ 10.4 µM)
  MIC Enterococcus faecium (GC 4556): 32 µg/mL (≈ 20.7 µM)
  MIC Enterococcus faecium (GC 4557): 32 µg/mL (≈ 20.7 µM)
[4]; inoculum 5×10^5 CFU/mL, strain ATCC 29212
  MIC Enterococcus faecalis (ATCC 29212): 32 µg/mL (≈ 20.7 µM)
[4]; inoculum 5×10^5 CFU/mL, strain GC 2242
  MIC Enterococcus faecalis (GC 2242): 32 µg/mL (≈ 20.7 µM)
[4]; inoculum 5×10^5 CFU/mL, strain GC 2243
  MIC Enterococcus faecium (GC 2243): 16 µg/mL (≈ 10.4 µM)
[4]; inoculum 5×10^5 CFU/mL, strain GC 2691
  MIC Enterococcus faecalis (GC 2691): 32 µg/mL (≈ 20.7 µM)
[4]; inoculum 5×10^5 CFU/mL, strain GC 3059
  MIC Enterococcus faecalis (GC 3059): 32 µg/mL (≈ 20.7 µM)
[4]; inoculum 5×10^5 CFU/mL, strain GC 4552
  MIC Enterococcus faecalis (GC 4552): 32 µg/mL (≈ 20.7 µM)
[4]; inoculum 5×10^5 CFU/mL, strain GC 4553
  MIC Enterococcus faecalis (GC 4553): 16 µg/mL (≈ 10.4 µM)
[4]; inoculum 5×10^5 CFU/mL, strain GC 4554
  MIC Enterococcus faecalis (GC 4554): 32 µg/mL (≈ 20.7 µM)
[4]; inoculum 5×10^5 CFU/mL, strain GC 4556
  MIC Enterococcus faecium (GC 4556): 32 µg/mL (≈ 20.7 µM)
[4]; inoculum 5×10^5 CFU/mL, strain GC 4557
  MIC Enterococcus faecium (GC 4557): 32 µg/mL (≈ 20.7 µM)
[4]; inoculum 5×10^5 CFU/mL, strain GC 4558
  MIC Enterococcus avium (GC 4558): 32 µg/mL (≈ 20.7 µM)
[4]; inoculum 5×10^5 CFU/mL, strain GC 6189
  MIC Enterococcus faecalis (GC 6189): 32 µg/mL (≈ 20.7 µM)

## CC(c1ccccc1)C1NC(=O)CNC(=O)C(CO)NC(=O)C(C(O)C2CNC(=N)N2C2OC(CO)C(O)C(O)C2O)NC(=O)C(C(O)C2CNC(=N)N2)NC(=O)C(Cc2ccc3oc(-c4ccc(Br)cc4)nc3c2)NC1=O (stereo not drawn) [Example 27, Cyclo[3-[2-(4-bromophenyl)-1,3-benzoxazol-5-yl]alanyl-3-(2-iminoimidazolidin-4-yl)seryl-3-(3-hexopyranosyl-2-iminoimidazolidin-4-yl)serylserylglycyl-β-methylphenylalanyl]]
[1]; strain ATCC 25922, broth dilution
  MIC Escherichia coli (ATCC 25922): 32 µg/mL (≈ 27.8 µM)
[1]; strain GC 4559, broth dilution
  MIC Escherichia coli (GC 4559): 32 µg/mL (≈ 27.8 µM)
[1]; strain GC 4560, broth dilution
  MIC Escherichia coli (GC 4560): 8 µg/mL (≈ 6.95 µM)
[2]
  MIC Staphylococcus aureus (ATCC 29213): 8 µg/mL (≈ 6.95 µM)
  MIC Staphylococcus aureus (GC 1131): 16 µg/mL (≈ 13.9 µM)
  MIC Staphylococcus aureus (GC 3051): 16 µg/mL (≈ 13.9 µM)
  MIC Staphylococcus aureus (GC 3053): 8 µg/mL (≈ 6.95 µM)
  MIC Staphylococcus aureus (GC 4541): 16 µg/mL (≈ 13.9 µM)
  MIC Staphylococcus aureus (GC 4542): 8 µg/mL (≈ 6.95 µM)
  MIC Staphylococcus aureus-SMITH (GC 4543): 8 µg/mL (≈ 6.95 µM)
  MIC Staphylococcus aureus (GC 4544): 8 µg/mL (≈ 6.95 µM)
  MIC Staphylococcus aureus (GC 4545): 8 µg/mL (≈ 6.95 µM)
  MIC Staphylococcus haemolyticus (GC 4546): 4 µg/mL (≈ 3.48 µM)
  MIC Coagulase Negative Staphylococcus (GC 4547): 8 µg/mL (≈ 6.95 µM)
  MIC Coagulase Negative Staphylococcus (GC 4548): 8 µg/mL (≈ 6.95 µM)
  MIC Coagulase Negative Staphylococcus (GC 4549): 8 µg/mL (≈ 6.95 µM)
  MIC Coagulase Negative Staphylococcus (GC 4551): 8 µg/mL (≈ 6.95 µM)
  MIC Coagulase Negative Staphylococcus (GC 6257): 4 µg/mL (≈ 3.48 µM)
[3]; strain ATCC 6301
  MIC Streptococcus pneumoniae (ATCC 6301): 16 µg/mL (≈ 13.9 µM)
[3]; strain GC 1894
  MIC Streptococcus pneumoniae (GC 1894): 32 µg/mL (≈ 27.8 µM)
[3]; strain GC 4563
  MIC Streptococcus pyogenes (GC 4563): 8 µg/mL (≈ 6.95 µM)
[3]; strain GC 4564
  MIC Streptococcus agalactiae (GC 4564): 32 µg/mL (≈ 27.8 µM)
[3]; strain GC 4565
  MIC Streptococcus pneumoniae (GC 4565): 16 µg/mL (≈ 13.9 µM)
[4]; strain ATCC 29212
  MIC Enterococcus faecalis (ATCC 29212): 32 µg/mL (≈ 27.8 µM)
[4]; strain GC 2242
  MIC Enterococcus faecalis (GC 2242): 32 µg/mL (≈ 27.8 µM)
[4]; strain GC 2243
  MIC Enterococcus faecium (GC 2243): 32 µg/mL (≈ 27.8 µM)
[4]; strain GC 2691
  MIC Enterococcus faecalis (GC 2691): 32 µg/mL (≈ 27.8 µM)
[4]; strain GC 3059
  MIC Enterococcus faecalis (GC 3059): 32 µg/mL (≈ 27.8 µM)
[4]; strain GC 4552
  MIC Enterococcus faecalis (GC 4552): 64 µg/mL (≈ 55.6 µM)
[4]; strain GC 4553
  MIC Enterococcus faecalis (GC 4553): 16 µg/mL (≈ 13.9 µM)
[4]; strain GC 4554
  MIC Enterococcus faecalis (GC 4554): 32 µg/mL (≈ 27.8 µM)
[4]; strain GC 4556
  MIC Enterococcus faecium (GC 4556): 64 µg/mL (≈ 55.6 µM)
[4]; strain GC 4557
  MIC Enterococcus faecium (GC 4557): 8 µg/mL (≈ 6.95 µM)
[4]; strain GC 4558
  MIC Enterococcus avium (GC 4558): 16 µg/mL (≈ 13.9 µM)
[4]; strain GC 6189
  MIC Enterococcus faecalis (GC 6189): 32 µg/mL (≈ 27.8 µM)
